{"source": "patent US10350272B2", "about": "“Calcitonin analogues for treating diseases and disorders” (KeyBioscience AG, priority 2015, dated 2019)", "key": {"high fat diet (HFD) rats": {"test_system": "high fat diet (HFD) rats", "test": "8-week (56 day) treatment study in high fat diet rats with pair-fed controls (body weight, food intake, adipose tissue, liver TAG, adipokines)", "assay_type": "in vivo, rat", "conditions": "for liver triglyceride / triacylglycerol content: 8 weeks, all dose groups; for body weight: HFD rats, 0.625-10 μg/kg/day, 8 weeks (56 days), vs vehicle and pair-fed", "experimental": "To obtain obese rats, male Sprague-Dawley rats aged 12 weeks were placed on a diet consisting of regular rodent chow and a 60 kcal % high-fat diet (no. D12495; Research Diets) for a total of 12 wk. Following the 12 weeks on high fat diet the rats were randomized into treatment groups based on weight.\nThe second study consisted of the following groups: vehicle, KBP-042 0.625 μg/kg/day, KBP-042 1.25 μg/kg/day, KBP-042 2.5 μg/kg/day, KBP-042 5 μg/kg/day, KBP-042 10 μg/kg/day, pair-fed (calorie restriction) matching the 5 μg/kg/day and pair-fed (calorie restriction) matching the 10 μg/kg/day, to allow assessment of the effect of KBP-042 on bodyweight independent of its effect on food intake.\nThroughout the experiment the bodyweight and food intake were monitored, and at termination liver and fat depots were collected for weighing and potential analysis of triglyceride content.\nThe method is based on Folch et al. At the time of extraction the samples were portioned at 500 mg individually and transferred to glass tubes, followed by the addition of 10 mL 100 μg/mL butylated hydroxytoluene (BHT) in chloroform:methanol 2:1 (v:v), and placed on ice. Each sample was added 150 μL of the internal standard solution. Homogenization was performed using a rotor-stator submersion blender (IKA Ultra-Turrax T25) with the sample tubes submerged in ice-water. The samples were each homogenized for 3×10 seconds with 50 second intervals, where after the homogenate is transferred to 35 mL screw-cap centrifuge tubes. The aggregate was cleaned in 5 mL chloroform:methanol 2:1 in the original glass tube, which was then transferred quantitatively to the homogenate. The homogenate was added 3 mL (0.24 times the total homogenate volume) of 0.73% (w/v) NaCl in MiliQ H2O and mixed, followed by centrifugation at 2800·g for 5 minutes at 4° C., to create a 2-phase system. The lower phase was transferred to a clean 12.5 mL centrifugation tube. The homogenate (the upper phase) was then added 3 mL chloroform:methanol 85:15 and mixed, followed by another centrifugation step. The new lower phase was then isolated and added to the first extract and dried down under nitrogen in a 40° C. water bath, followed by resolubilization in 300 μL chloroform:methanol 2:1. At this point the lipid extracts can be stored at −20° C.\nThe lipid extracts were fractionated on amino-propyl columns (Phenomenex Strata NH2, product number: 8B-S009-HBJ). The columns were pre-washed with 2×2 mL chloroform:methanol 23:1 (v:v) and left to dry. During fractionation the columns were not allowed to dry. The columns were primed with 2×1 mL hexane followed by application of the lipid extracts. Fraction 1 containing cholesterol esters was eluted with 3 mL Hexane into a clean tube. Fraction 2 containing TAG was eluted using 3 mL hexane:chloroform:ethylacetate 100:5:5 (v:v:v) into a clean tube. Fraction 3 containing DAG, Cholesterol and Ceramide was eluted using 3×2 mL chloroform:methanol 23:1 (v:v) into a new glass. Fraction 4 containing FFA was eluted using 5 mL 2% acetic acid in diethyl ether into a new glass. Fraction 5 containing PL was eluted using 4 mL methanol into a new glass. Fractions 1 and 2 were dried down under nitrogen at 40° C. and re-dissolved in 300 μL chloroform:methanol 95:5 and stored at −20° C. Fraction 4 and half of fraction 5 (fraction 5A) were dried down under nitrogen at 40° C. and re-dissolved in 300 μL chloroform:methanol 2:1 and stored at −20° C. Fraction 3 was equally dried down and re-dissolved in 135 μL chloroform and 67.5 μL isopropanol, transferred to HPLC vials and stored at −20° C. The other half of fraction (fraction 5B) was dried down under nitrogen and re-dissolved in 200 μL chloroform:isopropanol 1:1 (v:v), transferred to HPLC vials and stored at −20° C.\nTo allow gas chromatographic analysis of the fatty acids they must be converted to the more volatile Fatty Acid Methyl Ester (FAME) form. […]"}, "[1]": {"test_system": "insulin resistant HFD rats", "test": "Hyperinsulinemic-euglycemic clamp (glucose infusion rate)", "assay_type": "in vivo, rat", "experimental": "As liver fat is known to decrease insulin sensitivity, the effect of KBP-042 on insulin sensitivity was considered using the glucose infusion rate (GIR) in the hyperinsulinemic-euglycemic clamp. For this study ND rats were compared to insulin resistant HFD rats and 5 μg/kg KBP-042 treated HFD rats.\nThe results are shown in FIG. 13: A) Glucose infusion rate (GIR) at steady state during hyperinsulinemic-euglycemic clamp when blood glucose was clamped at basal levels after 21 days treatment; B) Body weight at hyperinsulinemic-euglycemic clamp experiment day after 21 days of treatment. Statistical analysis between groups was performed as a One-way ANOVA followed by Tukey's post-hoc test with the following annotations: *P<0.05, **P<0.01, ***P<0.001. Data are expressed as mean±SEM."}}, "note": "“Also recorded” adds a separate entry of the source."}
{"substance": "AcCSNLSTCVLGKLSQELHKLQTYPRTDVGANAP-NH2 (Ac-CSNLSTCVLGKLSQELHKLQTYPRTDVGANAP-NH2; not fully specified (bridges); cysteine pairing not given here) [KBP-042, calcitonin mimetic with Cys1-Cys7 disulphide bridge]", "values": [{"measurement": "plasma adiponectin levels", "setting": "high fat diet (HFD) rats; 1.25 μg/kg, 2.5 μg/kg, 5 μg/kg and 10 μg/kg, 56 days", "result": "significantly increased"}, {"measurement": "body weight at day 56", "setting": "high fat diet (HFD) rats; 2.5 μg/kg, 5 μg/kg and 10 μg/kg groups compared to HFD-vehicle", "result": "significantly lower"}, {"measurement": "food efficiency", "setting": "high fat diet (HFD) rats; 2.5 μg/kg, 5 μg/kg and 10 μg/kg, 56 days, calculated from food intake and body weight change, significantly different from pair-fed controls", "result": "drastic reduction"}, {"measurement": "plasma leptin levels", "setting": "high fat diet (HFD) rats; 10 μg/kg compared to the corresponding pair-fed control, 56 days", "result": "reached statistical significance"}, {"measurement": "liver triacylglycerols (TAG)", "setting": "high fat diet (HFD) rats; 10 μg/kg, 56 days, vs HFD-Vehicle, pair-fed control not significant", "result": "significantly reduced"}, {"measurement": "weight of isolated epididymal white adipose tissue", "setting": "high fat diet (HFD) rats; 10 μg/kg, 56 days, vs HFD-vehicle", "result": "significantly reduced"}, {"measurement": "weight of isolated perirenal white adipose tissue", "setting": "high fat diet (HFD) rats; 2.5, 5 and 10 μg/kg, 56 days, vs HFD-vehicle, not seen in pair-fed controls", "result": "significant reduction in size"}, {"measurement": "perirenal fat depot", "setting": "high fat diet (HFD) rats; 8-week study, compared to vehicle, even in a pair fed experiment", "result": "reduced"}, {"measurement": "liver triglyceride / triacylglycerol content", "setting": "high fat diet (HFD) rats; compared to vehicle", "result": "trends indicated a dose-dependent effect"}, {"measurement": "liver triglyceride / triacylglycerol content", "setting": "high fat diet (HFD) rats; compared to vehicle, listed as KBP peptide", "result": "reduced"}, {"measurement": "liver triglyceride / triacylglycerol content", "setting": "high fat diet (HFD) rats; compared to vehicle, listed as KBP-peptide", "result": "improvement"}, {"measurement": "fatty acid composition of hepatic TAG", "setting": "high fat diet (HFD) rats; 56 days", "result": "no differences in the relative distribution"}, {"measurement": "weight of inguinal white adipose tissue", "setting": "high fat diet (HFD) rats; 56 days", "result": "trend towards reducing"}, {"measurement": "plasma leptin levels", "setting": "high fat diet (HFD) rats; 56 days, all doses", "result": "trend towards reduced levels"}, {"measurement": "body weight", "setting": "high fat diet (HFD) rats", "result": "dose-dependent and sustained reduction of body weight; also recorded: large reduction in body weight and maintained weight loss for 8 weeks"}, {"measurement": "body weight", "setting": "high fat diet (HFD) rats; listed as KBP-peptide", "result": "marked weight reduction even when compared to the calorie restricted groups"}, {"measurement": "food intake", "setting": "high fat diet (HFD) rats; first 6 days of treatment, 2.5, 5 and 10 μg/kg, transient", "result": "large reduction in food intake"}, {"measurement": "body weight reduction", "setting": "[1]; 5 μg/kg, 21 days, HFD rats", "result": "~18", "unit": "%"}, {"measurement": "increase in glucose infusion rate (GIR) compared to HFD-Vehicle", "setting": "[1]; 5 μg/kg, 21 days, p<0.001", "result": 82, "unit": "%"}, {"measurement": "increase in GIR compared to ND", "setting": "[1]; 5 μg/kg, 21 days, p<0.05", "result": 27, "unit": "%"}, {"measurement": "body weight compared to ND rats", "setting": "[1]; 5 μg/kg, end of study (21 days)", "result": "not significantly different"}, {"measurement": "whole-body insulin sensitivity", "setting": "[1]; hyperinsulinemic-euglycemic clamp", "result": "improved"}]}
